Source: patent US8552038B2, “Crystalline forms of thiazolidinedione compound and its manufacturing method” (Daiichi Sankyo Company, Limited, priority 2007, dated 2013)
Entries after “also recorded” stand apart in the source; their conditions may differ. Where a name gives a salt, the structure may show the parent alone. Read-outs that look alike come from different tables or passages of the source. Blank lines part the entries; values can stand above or below the molecule they belong to.

How the values were obtained:
[1] = Solubility test in simulated gastric fluid; format: physicochemical; conditions: dihydrochloride; for Solubility: 37° C., after 60 minutes, paddle 250 rpm, free body conversion
Experimental: Solubilities of Crystalline form A and Crystalline form B of Compound (I) in a simulated gastric fluid were measured by the method below (free body conversion).
10 times concentrated Liquid 1 used for the disintegration test of the Japanese Pharmacopoeia (purchased from Kanto Chemical Co., Inc.) was diluted 10-fold with purified water to give a simulated gastric fluid. Approximately 80 mg of the crystalline form for measurement were precisely measured, transferred to a 25 ml volumetric flask, and dissolved in methanol to bring the total volume to 25 ml. 2 ml of the resulting solution were transferred to a 50 ml volumetric flask, and the simulated gastric fluid was added thereto to bring the total volume to 50 ml to give a standard solution.
By using an elution testing machine NTR-6100A (Toyama Sangyo Co., Ltd.), approximately 100 mg of the subject crystalline form were added to 500 ml of the simulated gastric fluid at 37° C., and agitated with a paddle (250 rpm). After 60 minutes, samples were taken from the test solution. The absorbance of the standard solution and test solution samples was measured at 289 nm and 360 nm by using a UV visible spectrophotometer.
weighing amount of the crystalline form used for the preparation of the standard solution (mg): WS;
absorbance of the standard solution at 289 nm: AS289;
absorbance of the standard solution at 360 nm: AS360;
absorbance of the test solution at 289 nm: AT289;
absorbance of the test solution at 360 nm: AT360;
molecular weight of the dihydrochloride monohydrate of Compound (I): 593.52; and
molecular weight of the free body of Compound (I): 502.58

[2] = biological target: T1, peroxisome proliferator-activated receptor (PPAR) γ (Homo sapiens, UniProt P37231); conditions: disclosed in Patent Literature 1-5; cited from earlier work
T1 sequence (P37231 1-505): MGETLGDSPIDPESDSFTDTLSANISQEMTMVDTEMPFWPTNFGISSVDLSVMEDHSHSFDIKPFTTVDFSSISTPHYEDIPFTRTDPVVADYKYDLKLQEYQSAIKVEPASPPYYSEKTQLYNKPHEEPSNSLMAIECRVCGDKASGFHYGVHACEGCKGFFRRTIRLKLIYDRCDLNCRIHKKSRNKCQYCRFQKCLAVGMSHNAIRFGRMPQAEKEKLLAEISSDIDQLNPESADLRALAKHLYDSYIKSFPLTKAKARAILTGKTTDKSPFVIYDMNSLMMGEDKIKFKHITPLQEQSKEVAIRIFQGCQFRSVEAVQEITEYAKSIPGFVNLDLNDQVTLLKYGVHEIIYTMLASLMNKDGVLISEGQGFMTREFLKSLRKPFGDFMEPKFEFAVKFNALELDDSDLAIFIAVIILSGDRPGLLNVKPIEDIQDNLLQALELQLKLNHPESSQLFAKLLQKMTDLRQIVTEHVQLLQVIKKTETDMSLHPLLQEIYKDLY

cancer cells = conditions: cited from earlier work
[3] = system: human non-small cell lung cancer; conditions: Test Example 5, cited from earlier work
human leukemia cells = conditions: Test Example 2 in WO 2007/091622; cited from earlier work
human kidney cancer = conditions: Test Example 7, cited from earlier work
[4] = system: human stomach cancer cells, human breast cancer cells, small cell lung cancer, pancreas cancer cells, prostate cancer cells, kidney cancer cells …; conditions: Test Example 1 in WO 2007/091622; cited from earlier work
[5] = system: human colon cancer cell lines; conditions: Test Example 3 in WO 2007/091622; cited from earlier work

Solubility [1]: 76.92 µg/mL
Compound: Cc1cc(Oc2ccc3nc(COc4ccc(CC5SC(=O)NC5=O)cc4)n(C)c3c2)cc(C)c1N (single isomer, unassigned) [Crystalline form A, monohydrate of 5-(4-{[6-(4-amino-3,5-dimethylphenoxy)-1-methyl-1-H-benzimidazol-2-yl]methoxy}benzyl)-1,3-thiazolidine-2,4-dione dihydrochloride]
Solubility, assessment in words [1]: sufficient solubility as a pharmaceutical ingredient

Solubility [1]: 155.25 µg/mL
Compound: Cc1cc(Oc2ccc3nc(COc4ccc(CC5SC(=O)NC5=O)cc4)n(C)c3c2)cc(C)c1N (single isomer, unassigned) [Crystalline form B, monohydrate of 5-(4-{[6-(4-amino-3,5-dimethylphenoxy)-1-methyl-1-H-benzimidazol-2-yl]methoxy}benzyl)-1,3-thiazolidine-2,4-dione dihydrochloride]
Solubility, assessment in words [1]: sufficient solubility as a pharmaceutical ingredient; also recorded: higher solubility than the Compound (I) which has been known

Compound: Cc1cc(Oc2ccc3nc(COc4ccc(CC5SC(=O)NC5=O)cc4)n(C)c3c2)cc(C)c1N (centres unmarked) [Compound (I), 5-(4-{[6-(4-amino-3,5-dimethylphenoxy)-1-methyl-1-H-benzimidazol-2-yl]methoxy}benzyl)-1,3-thiazolidine-2,4-dione]
ability of PPARγ activation [2]: significant ability of peroxisome proliferator-activated receptor (PPAR) γ activation

Compound: Cc1cc(Oc2ccc3nc(COc4ccc(CC5SC(=O)NC5=O)cc4)n(C)c3c2)cc(C)c1N (centres unmarked) [dihydrochloride of Compound (I), 5-(4-{[6-(4-amino-3,5-dimethylphenoxy)-1-methyl-1-H-benzimidazol-2-yl]methoxy}benzyl)-1,3-thiazolidine-2,4-dione dihydrochloride]
activity to suppress proliferation in cancer cells, combination (cancer cells; in combination with a VEGFR inhibitor or a Raf kinase inhibitor, Test Example 6): synergetic activity to suppress proliferation | activity to suppress proliferation in cancer cells, combination (cancer cells; in combination with an epidermal growth factor receptor (EGFR) inhibitor, Test Example 4): synergetic activity to suppress proliferation | antitumor activity ([3]; alone): exerts an antitumor activity | antitumor activity, combination ([3]; in combination with an EGFR inhibitor): enhanced antitumor activity | proliferation suppressing activity in human leukemia cells (human leukemia cells): inhibits significantly proliferation suppressing activity | antitumor activity (human kidney cancer; alone): exerts an antitumor activity | antitumor activity, combination (human kidney cancer; in combination with a VEGFR inhibitor or a Raf kinase inhibitor): enhanced antitumor activity | activity to suppress proliferation of cancer cells [4]: significant activity to suppress proliferation | antitumor activity in vivo [5]: significant antitumor activity
